Measurements from PubChem BioAssay AID1963865 (Molecular Pharmacology Branch, DTP, NCI, 2024).
pIC50: −log10 of the molar value.

System: KRAS PDC multicell spheroid viability
Test: Anticancer human tumor 825966-067-R-J1-PDC patient-derived colon carcinoma cell line growth inhibition [KRAS2]
Settings: for viability, T/C: stronger effect = lower value
How it was run: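 Combination screen of spheroid viability in tumor-cell co-cultures with endothelial (HUVEC) and mesenchymal stem cell stroma. Each agent was tested in half-log dilutions, topping at clinical Cmax or at 10 microM without a known Cmax.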

[1] = curve of first compound, second compound 0.1 µM
[2] = curve of first compound, second compound 0.316 µM
[3] = curve of first compound, second compound 1 µM
[4] = curve of first compound, second compound 3.16 µM
[5] = curve of first compound, second compound 10 µM
[6] = second compound 0.1 µM, first compound 0.000316 µM
[7] = second compound 0.1 µM, first compound 0.001 µM
[8] = second compound 0.1 µM, first compound 0.00316 µM
[9] = second compound 0.1 µM, first compound 0.01 µM
[10] = second compound 0.1 µM, first compound 0.0316 µM
[11] = second compound 0.1 µM, first compound 0.1 µM
[12] = second compound 0.316 µM, first compound 0.000316 µM
[13] = second compound 0.316 µM, first compound 0.001 µM
[14] = second compound 0.316 µM, first compound 0.00316 µM
[15] = second compound 0.316 µM, first compound 0.01 µM
[16] = second compound 0.316 µM, first compound 0.0316 µM
[17] = second compound 0.316 µM, first compound 0.1 µM
[18] = second compound 1 µM, first compound 0.000316 µM
[19] = second compound 1 µM, first compound 0.001 µM
[20] = second compound 1 µM, first compound 0.00316 µM
[21] = second compound 1 µM, first compound 0.01 µM
[22] = second compound 1 µM, first compound 0.0316 µM
[23] = second compound 1 µM, first compound 0.1 µM
[24] = second compound 3.16 µM, first compound 0.000316 µM
[25] = second compound 3.16 µM, first compound 0.001 µM
[26] = second compound 3.16 µM, first compound 0.00316 µM
[27] = second compound 3.16 µM, first compound 0.01 µM
[28] = second compound 3.16 µM, first compound 0.0316 µM
[29] = second compound 3.16 µM, first compound 0.1 µM
[30] = second compound 10 µM, first compound 0.000316 µM
[31] = second compound 10 µM, first compound 0.001 µM
[32] = second compound 10 µM, first compound 0.00316 µM
[33] = second compound 10 µM, first compound 0.01 µM
[34] = second compound 10 µM, first compound 0.0316 µM
[35] = second compound 10 µM, first compound 0.1 µM
[36] = second compound 0.1 µM, first compound 0.316 µM
[37] = second compound 0.1 µM, first compound 1 µM
[38] = second compound 0.1 µM, first compound 3.16 µM
[39] = second compound 0.316 µM, first compound 0.316 µM
[40] = second compound 0.316 µM, first compound 1 µM
[41] = second compound 0.316 µM, first compound 3.16 µM
[42] = second compound 1 µM, first compound 0.316 µM
[43] = second compound 1 µM, first compound 1 µM
[44] = second compound 1 µM, first compound 3.16 µM
[45] = second compound 3.16 µM, first compound 0.316 µM
[46] = second compound 3.16 µM, first compound 1 µM
[47] = second compound 3.16 µM, first compound 3.16 µM
[48] = second compound 10 µM, first compound 0.316 µM
[49] = second compound 10 µM, first compound 1 µM
[50] = second compound 10 µM, first compound 3.16 µM
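Note: spheroids exposed to compounds for 7 days.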
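Throughout, for viability, T/C: 100% = DMSO vehicle control viability.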

SMILES | pIC50 [1] | pIC50 [2] | pIC50 [3] | pIC50 [4] | pIC50 [5] | viability, T/C [9] [%] | viability, T/C [10] [%] | viability, T/C [11] [%] | viability, T/C [15] [%] | viability, T/C [16] [%] | viability, T/C [17] [%] | viability, T/C [21] [%] | viability, T/C [22] [%] | viability, T/C [23] [%] | viability, T/C [27] [%] | viability, T/C [28] [%] | viability, T/C [29] [%] | viability, T/C [33] [%] | viability, T/C [34] [%] | viability, T/C [35] [%] | other results
CN(C)C/C=C/C(=O)Nc1cc2c(Nc3ccc(F)c(Cl)c3)ncnc2cc1O[C@H]1CCOC1 + CC1OCC2(CCN(c3cnc(Sc4ccnc(N)c4Cl)c(N)n3)CC2)C1N | < 7.00 | < 7.00 | < 7.00 | < 7.00 | < 7.00 | 120 | 91.4 | 80.2 | 79.1 | 105 | 101 | 81.8 | 84.2 | 96.8 | 86.3 | 88.1 | 85.9 | 107 | 94.9 | 124 | viability, T/C [6]: 103%; viability, T/C [7]: 100%; viability, T/C [8]: 126%; viability, T/C [12]: 93.4%; viability, T/C [13]: 86.6%; viability, T/C [14]: 94.2%; viability, T/C [18]: 104%; viability, T/C [19]: 118%; viability, T/C [20]: 99%; viability, T/C [24]: 100%; viability, T/C [25]: 105%; viability, T/C [26]: 93.9%; viability, T/C [30]: 81.1%; viability, T/C [31]: 87.2%; viability, T/C [32]: 108%
CC(=O)OC12COC1CC(O)C1(C)C(=O)C(O)C3=C(C)C(OC(=O)C(O)C(NC(=O)OC(C)(C)C)c4ccccc4)CC(O)(C(OC(=O)c4ccccc4)C21)C3(C)C (stereo not drawn) + CC1OCC2(CCN(c3cnc(Sc4ccnc(N)c4Cl)c(N)n3)CC2)C1N | > 8.00 | > 8.00 | > 8.00 | > 8.00 | > 8.00 | 17.9 | 15.2 | 18.4 | 13.1 | 12 | 13.3 | 17.5 | 18 | 18.9 | 10.3 | 10.2 | 10.7 | 7.08 | 7.25 | 10 | viability, T/C [36]: 17.1%; viability, T/C [37]: 17.3%; viability, T/C [38]: 22%; viability, T/C [39]: 12%; viability, T/C [40]: 15.8%; viability, T/C [41]: 15.9%; viability, T/C [42]: 12.3%; viability, T/C [43]: 13%; viability, T/C [44]: 21.6%; viability, T/C [45]: 6.99%; viability, T/C [46]: 7.72%; viability, T/C [47]: 11.7%; viability, T/C [48]: 6.28%; viability, T/C [49]: 4.82%; viability, T/C [50]: 10.1%
CCNC(=O)CC1N=C(c2ccc(Cl)cc2)c2cc(OC)ccc2-n2c(C)nnc21 (stereo not drawn) + CNCc1ccccc1-c1csc(C(C)Nc2nc(C)nc3cc(OC)c(OC)cc23)c1 | < 5.00 | < 5.00 | < 5.00 | > 7.50 | > 7.50 | – | 90.3 | 113 | – | 112 | 113 | – | 117 | 113 | – | 27.8 | 0.64 | – | 0.15 | 0.15 | viability, T/C [36]: 118%; viability, T/C [37]: 91.4%; viability, T/C [38]: 82.2%; viability, T/C (second compound 0.1 µM, first compound 10 µM): 65%; viability, T/C [39]: 120%; viability, T/C [40]: 90.9%; viability, T/C [41]: 83.1%; viability, T/C (second compound 0.316 µM, first compound 10 µM): 71.5%; viability, T/C [42]: 122%; viability, T/C [43]: 111%; viability, T/C [44]: 96.6%; viability, T/C (second compound 1 µM, first compound 10 µM): 51.1%; viability, T/C [45]: 0.53%; viability, T/C [46]: 0.19%; viability, T/C [47]: 2.33%; viability, T/C (second compound 3.16 µM, first compound 10 µM): 0.59%; viability, T/C [48]: 0.17%; viability, T/C [49]: 0.16%; viability, T/C [50]: 0.14%; viability, T/C (second compound 10 µM, first compound 10 µM): 0.37%
Cn1ncnc1[C@H]1c2n[nH]c(=O)c3cc(F)cc(c23)N[C@@H]1c1ccc(F)cc1 + CNCc1ccccc1-c1csc(C(C)Nc2nc(C)nc3cc(OC)c(OC)cc23)c1 | < 7.00 | < 7.00 | < 7.00 | 7.65 | > 9.50 | 64.5 | 58.2 | 58.3 | 57.9 | 57.3 | 62.2 | 73.5 | 70 | 86 | 89.3 | 37.6 | 3.27 | 0.28 | 0.22 | 0.19 | viability, T/C [6]: 77%; viability, T/C [7]: 84.2%; viability, T/C [8]: 76.4%; viability, T/C [12]: 99.9%; viability, T/C [13]: 75.2%; viability, T/C [14]: 62.5%; viability, T/C [18]: 85.9%; viability, T/C [19]: 97.9%; viability, T/C [20]: 72%; viability, T/C [24]: 87.3%; viability, T/C [25]: 78.7%; viability, T/C [26]: 59.9%; viability, T/C [30]: 0.24%; viability, T/C [31]: 0.26%; viability, T/C [32]: 0.49%
COc1cc(Nc2ncc3c(n2)-c2ccc(Cl)cc2C(c2c(F)cccc2OC)=NC3)ccc1C(=O)O | – | – | – | – | – | – | – | – | – | – | – | – | – | – | – | – | – | – | – | – | viability, T/C (compound 0.1 µM): 103% [middle of 5 runs]; viability, T/C (compound 1 µM): 114% [middle of 5 runs]; viability, T/C (compound 3.16 µM): 119% [middle of 5 runs]; viability, T/C (compound 10 µM): 132% [middle of 5 runs]; pIC50 (curve of compound): < 5.00
C=CC(=O)N1CCN(c2nc(=O)n(-c3c(C)ccnc3C(C)C)c3nc(-c4c(O)cccc4F)c(F)cc23)C(C)C1 (stereo not drawn) | – | – | – | – | – | – | – | – | – | – | – | – | – | – | – | – | – | – | – | – | pIC50 (compound alone, run of 08/19/2021): < 5.00; pIC50 (compound alone, run of 08/26/2021): < 5.00; pIC50 (compound alone, run of 09/02/2021): < 5.00
